In patent US8008260B2, “Methods of protecting against apoptosis using lipopeptides” (Cleveland Clinic Foundation, priority 2005, dated 2011):
Peptide text beside a SMILES is read from it. * marks the point of attachment. Propyl(2R-PamO,3-PamO) = CCCCCCCCCCCCCCCC(=O)OC[C@H](C*)OC(=O)CCCCCCCCCCCCCCC

Assays:
ICR mice [1] = assay: Radiation LD50/30 and dose modification factor (DMF30); assay type: in vivo
Method: To determine DMF (dose modification factor), 3 μg of CBLB601/mouse was injected i.m. 24 hr prior to irradiation and control mice were injected with PBS. Both drug-injected and control groups received a single dose of TBI covering the dose range that leads to 10-90% mortality within the chosen time intervals (7 days for the gastrointestinal syndrome mortality, and 30 days for the hematopoietic syndrome mortality). The percent mortality-radiation dose graphs were built and LD50/7 and LD50/30 (LD50 at 7 days and 30 days, respectively) were calculated using probit or logit statistical analysis. DMF (also known as dose reduction factor, DRF) was calculated as a ratio of radiation LD50 for CBLB601-treated groups and radiation LD50 for vehicle-treated groups of mice for the chosen survival time point, 7 or 30 days. To calculate DMF30, which is the DMF at day 30 post-irradiation, the radiation LD50/30 values for mice treated with PBS or 3 μg of CBLB601 was determined. For this, PBS-injected groups were irradiated with doses of 6, 6.5, 7, and 7.7 Gy of TBI, and CBLB601-injected groups were irradiated with doses of 10, 10.5, 11, 11.5, and 12 Gy of TBI. […] However, inconsistency in the response to some radiation doses (7 Gy appeared non-toxic whereas 6.5 Gy caused 60% lethality at 30 days) in the control mice precluded an accurate calculation of the DMF30 for CBLB601. Nevertheless, it was expected that the LD50/30 for ICR mice was around 7 Gy [an average for the majority of mouse strains; Monobe et al., Radiother Oncology 73 Suppl 2: S12709, 2004)]. Thus, the value of DMF30 for CBLB601 was estimated roughly as ˜1.6.

ICR mice [2] = assay: Immune status of mice rescued from TBI (spleen and thymus weight, histology, flagellin immunization); assay type: in vivo
Method: To check the status of their immune systems, ICR mice were exposed to lethal (10 Gy) or non-lethal (6 Gy) doses of TBI 24 hr after they had been injected (i.m.) with 3 μg CBLB601/mouse or PBS. Groups of five mice from each condition were sacrificed very three days and their spleens and thymuses were removed and weighed. The weights of the spleens were normalized to the body weights of the corresponding animals and the results are presented in FIG. 15. PBS-treated mice that were exposed to 6 Gy of radiation took about 13-14 days to restore their spleens to normal weights, whereas CBLB601-treated mice exposed to 6 Gy of radiation had normal spleen weights by day 8. […] It took a longer period of time (˜30 days) to restore the thymuses to normal weights (not shown).
The spleens and thymuses from control and CBLB601-injected mice were examined microscopically for morphological changes at 3, 10 and 30 days after irradiation. […] There was no evidence of recovery of the splenic white pulp depletion in either group at day 10. Regenerative lymphoid hyperplasia in the thymus was evident in both groups at day 10, with the regeneration slightly more advanced in the control that in the CBLB601-treated mice.
To test the immune response of mice rescued from a lethal dose of gamma-irradiation (10 Gy of TBI) by CBLB601, several groups of such mice were subjected to immunization with a strong antigen, Salmonella flagellin. The mice were first immunized at 8, 18, or 20 weeks after irradiation, at which time they were 18, 25, and 33 weeks of age, respectively. Non-irradiated naïve mice at 29 weeks of age were used as a positive control for the immune response. The mice received a boost of flagellin one week after the first immunization, and another boost three weeks after the 2nd boost; anti-flagellin antibody titers were measured in mouse serum. To test the secondary immune response, the mice were bled again a month later to insure reduction of the antibody titers. This was followed by a 3rd boost of the antigen injection and measurement of anti-flagellin antibodies titers 10 days later. At the time of the 3rd boost, the irradiation mice were 38, 30, and 23 weeks old, and the control mice were 34 weeks old.

[3] = 3 μg/mouse i.m. 24 hr prior to irradiation, ProBit analysis

With `CCCCCCCCCCCCCCCC(=O)OC[C@H](CSC[C@H](N)C(=O)N[C@@H](CO)C(=O)N[C@@H](CCCCN)C(=O)N[C@@H](CCCCN)C(=O)N[C@@H](CCCCN)C(=O)N[C@@H](CCCCN)C(=O)O)OC(=O)CCCCCCCCCCCCCCC` [CBLB601, R-PAM2C-SKKKK] (H-C(Propyl(2R-PamO,3-PamO))SKKKK-OH) the “radiation LD50/30, average” value (ICR mice [1]; [3]) was roughly 11.32 Gy, the “radiation LD50/30, range” value (ICR mice [1]; [3]) was 11.07-11.61 Gy and the “DMF30 (dose modification factor at day 30)” value (ICR mice [1]; 3 μg/mouse i.m. 24 hr prior, control LD50/30 taken as around 7 Gy from literature) was roughly 1.6. The “time to restore the thymuses to normal weights” value (ICR mice [2]; 3 μg/mouse i.m. 24 hr before TBI, not shown) was roughly 30 days, the “day by which spleen weights were normal” value (ICR mice [2]; 6 Gy TBI, 3 μg/mouse i.m. 24 hr before) was no more than 8 days and the “day by which spleen weights were completely restored” value (ICR mice [2]; 10 Gy TBI, 3 μg/mouse i.m. 24 hr before) was 13 to 14 days. For the same molecule, the “spleen histology, extramedullary hematopoiesis” value (ICR mice [2]; 10 days post-irradiation, 10 Gy) was “mild to moderate multifocal extramedullary hematopoiesis (EMH)” and the “humoral immune response against flagellin” value (ICR mice [2]; mice rescued from 10 Gy TBI, immunized 8, 18 or 20 weeks after irradiation) was “robust humoral immune response against flagellin that was indistinguishable from that of the naïve control mice”.
